The text below walks through data of US8454991B2, “Method and device for photodynamic therapy” (Quest Pharmatech Inc., priority 2006, dated 2013).

One series relates to mouse skin. Type of series: in vivo, Male Balb/c mice. The protocol: The feasibility of using these alternative light sources as over the counter devices for topical PDT application is tested using an in vivo hair removal assay to assess their ability to generate a hair removal effect on mouse skin using SL-017, a known photosensitizer. Mouse strain. Male Balb/c mice of approximately 6 to 8 weeks of age weighing 16 to 18 grams were obtained from Charles River animal facility. The animals were allowed a minimum of 1 week to acclimatize to the facility prior to treatment. In vivo hair removal assay. The animals were anesthetized with a 0.1 ml intra peritoneal injection of 12 mg/ml sodium pentobarbital in 0.9% Saline. An approximately 1.5×1.5 cm square area on the back of each animal was shaved and the area treated with a 2% SL-017 topical gel for 60 minutes. The excess gel was removed from the area and it was covered with a template with a 1 cm diameter opening. The open area was treated with either 15 or 30 J/cm^2 of light from a LED flashlight. […] The mice were monitored once weekly for the re-growth of hair in the treated area. For the white LED, the treatment time required for the 15 J/cm^2 dose group was 5 minutes and 45 sec. while for the 30 J/cm^2 dose group was 11 minutes and 30 seconds. For the red LED, the treatment time required for the 15 J/cm^2 dose group was 45 minutes, and for the 30 J/cm^2 dose group was 90 minutes.

Another series has as its system EMT-6 tumor cells. In words: In vitro clonogenic assay (PDT phototoxic effect). The class given is cell-based. Conditions: 2 hours incubation; for inhibition at 5 µM: Mus musculus. The protocol: The feasibility of using these alternative light sources as over the counter devices for topical PDT application is tested using an in vitro clonogenic assay to assess their ability to generate a phototoxic effect with SL-017, a known photosensitizer.
In vitro clonogenic assay. EMT-6 tumor cells are grown in culture in RPMI 1640 and plated onto Petri dishes. The photosensitizer SL-017 is added at a fixed concentration of 5 μM to the dishes and allowed to incubate for 2 hours, and then removed. The dishes are irradiated using the different two LED light sources and the orange (rhodamine 6G) chemiluminescent light source at pre-determined light doses. The EMT-6 cells are then re-plated and allowed to grow, for 5 to 7 days The number of surviving colonies in the control and treated plates are counted visually and compared.

One may read the inhibition as the drop in the measured response relative to a control, in per cent.

As to `COc1c2c3c4c(c(NCCCN(C)C)c(=O)c5c(O)cc(OC)c(c6c(OC)cc(O)c(c1=O)c63)c54)C=C(C)C2C(C)=O` (stereo not shown) [SL-017], the “delay in hair re-growth” value in the series with mouse skin (2% SL-017 topical gel for 60 minutes, red LED light, 30 J/cm^2) was found to be 3 weeks. Besides, the “re-growth of hair in the treated area versus controls” value with mouse skin (2% SL-017 topical gel for 60 minutes, white LED light, 15 J/cm^2) is “no differences in the re-growth of hair”. Moreover, the “delay in re-growth of hair” value in the series on mouse skin (2% SL-017 topical gel for 60 minutes, white LED light, 30 J/cm^2) is listed as below 1 week. Besides, the “skin reaction post treatment at the treated site” value in the series on mouse skin (mouse, in vivo) is “erythema is observed”. Besides, the inhibition at 5 µM in the series on EMT-6 tumor cells (EMT6, SL-017 5 μM, orange (rhodamine 6G) chemiluminescent light stick, 1 hour exposure) stood at 31.3%; with EMT-6 tumor cells (EMT6, light or radiation study, 2 h, SL-017 5 μM, red LED light (3 W), 0.1 J/cm^2) it was 100%; in the series with EMT-6 tumor cells (EMT6, light or radiation study, 2 h, SL-017 5 μM, red LED light (3 W), 0.25 J/cm^2), 100%; with EMT-6 tumor cells (EMT6, light or radiation study, 2 h, SL-017 5 μM, red LED light (3 W), 0.4 J/cm^2), 100%; in the series with EMT-6 tumor cells (EMT6, light or radiation study, 2 h, SL-017 5 μM, white LED light (9 W), 0.5 J/cm^2), 98.6%; in the series with EMT-6 tumor cells (EMT6, light or radiation study, 2 h, SL-017 5 μM, white LED light (9 W), 1.0 J/cm^2) it was 100%. In the series on EMT-6 tumor cells (EMT6, light or radiation study, 2 h, SL-017 5 μM, white LED light (9 W), 2.0 J/cm^2), the inhibition at 5 µM turned out to be 100%. The “Number of Colonies” value in the series on EMT-6 tumor cells (SL-017 5 μM, orange (rhodamine 6G) chemiluminescent light stick, 1 hour exposure) was 86.3; in the series with EMT-6 tumor cells (SL-017 5 μM, orange (rhodamine 6G) chemiluminescent light stick, 2 hour exposure) it was 187.3; with EMT-6 tumor cells (SL-017 5 μM, red LED light (3 W), 0.1 J/cm^2), 0; in the series with EMT-6 tumor cells (SL-017 5 μM, red LED light (3 W), 0.25 J/cm^2), 0; in the series with EMT-6 tumor cells (SL-017 5 μM, red LED light (3 W), 0.4 J/cm^2) it was 0; with EMT-6 tumor cells (SL-017 5 μM, white LED light (9 W), 0.5 J/cm^2), 1.8. The “Number of Colonies” value in the series on EMT-6 tumor cells (SL-017 5 μM, white LED light (9 W), 1.0 J/cm^2) is given as 0; in the series with EMT-6 tumor cells (SL-017 5 μM, white LED light (9 W), 2.0 J/cm^2) it was 0.
